Experimental data reported in patent publication US11400059B2, “Treatment of pain and/or pain related symptoms associated with dysmenorrhea” (ALYRA BIOTECH PTY LTD, priority 2017, dated 2022).

Legend:
Type in all cases: cell-based
hTLR7 = biological target: T1, hTLR7 (Homo sapiens, UniProt Q9NYK1); assay: Human TLR/NLR agonist screening, NF-κB SEAP reporter in HEK293 cells; conditions: agonist mode, Control+ = CL307 1 μg/mL
T1 construct: expressed in transfected cells; host or cells: HEK293
T1 sequence (Q9NYK1 27-1049): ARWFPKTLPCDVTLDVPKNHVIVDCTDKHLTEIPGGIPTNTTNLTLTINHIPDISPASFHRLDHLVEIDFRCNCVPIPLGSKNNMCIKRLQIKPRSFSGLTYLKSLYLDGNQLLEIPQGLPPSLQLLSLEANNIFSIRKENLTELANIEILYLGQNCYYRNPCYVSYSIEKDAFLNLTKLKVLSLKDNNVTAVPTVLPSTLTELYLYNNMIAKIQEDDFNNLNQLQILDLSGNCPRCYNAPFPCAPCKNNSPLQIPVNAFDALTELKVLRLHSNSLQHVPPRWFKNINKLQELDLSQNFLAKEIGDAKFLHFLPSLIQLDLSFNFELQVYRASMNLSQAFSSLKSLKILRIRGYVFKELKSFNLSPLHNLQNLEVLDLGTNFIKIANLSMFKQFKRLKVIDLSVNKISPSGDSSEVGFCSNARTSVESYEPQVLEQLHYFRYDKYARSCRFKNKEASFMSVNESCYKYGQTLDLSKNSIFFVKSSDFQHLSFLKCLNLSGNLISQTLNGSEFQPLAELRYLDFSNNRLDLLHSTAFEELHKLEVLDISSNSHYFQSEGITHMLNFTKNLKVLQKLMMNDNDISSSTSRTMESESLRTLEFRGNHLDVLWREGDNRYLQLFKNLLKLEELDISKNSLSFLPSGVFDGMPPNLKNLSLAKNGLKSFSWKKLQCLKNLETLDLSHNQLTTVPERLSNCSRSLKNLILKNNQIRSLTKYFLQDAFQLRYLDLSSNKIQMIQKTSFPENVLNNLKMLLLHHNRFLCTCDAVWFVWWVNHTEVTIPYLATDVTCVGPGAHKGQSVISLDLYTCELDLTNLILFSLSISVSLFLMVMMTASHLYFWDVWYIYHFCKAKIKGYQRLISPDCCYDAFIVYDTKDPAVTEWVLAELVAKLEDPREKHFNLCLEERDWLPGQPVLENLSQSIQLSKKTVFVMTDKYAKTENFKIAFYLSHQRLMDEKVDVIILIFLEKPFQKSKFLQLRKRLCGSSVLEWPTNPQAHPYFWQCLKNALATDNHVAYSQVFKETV
Method: (§1) Toll-Like Receptor (TLR), NOD-Like Receptor (NLR) and C-Type Lectin Receptor (CLR) stimulation were tested by assessing NF-κB activation in HEK293 cells expressing a given TLR, NLR or CLR. The activity of the test articles was tested at one concentration and compared to control ligands. These steps were performed in triplicate.
hTLR7: CL307 at 1 μg/mL Antagonist: 10 ng/mL.
(§2) In a 96-well plate (200 μL total volume) containing the appropriate cells (50,000-75,000 cells/well), 20 μL of the test article or the positive control ligand was added to the wells. For the antagonist assay, the test article was incubated with the cells, at 37° C. with 5% CO2, for 30 minutes prior to the addition of the positive control ligand to the wells. The media added to the wells was designed for the detection of NF-κB induced SEAP expression. After a 16-24 hr incubation the optical density (OD) was read at 650 nm on a Molecular Devices SpectraMax 340PC absorbance detector.
The fold induction (ratio of average induced value to average non-induced value) results were as follows: […]

hDectin-1a = biological target: T2, hDectin-1a (Homo sapiens, UniProt Q9BXN2); assay: Human CLR agonist screening, NF-κB SEAP reporter in HEK293 cells; conditions: agonist mode, Curdlan 100 μg/mL
T2 construct: expressed in transfected cells; host or cells: HEK293
T2 sequence (Q9BXN2 whole entry): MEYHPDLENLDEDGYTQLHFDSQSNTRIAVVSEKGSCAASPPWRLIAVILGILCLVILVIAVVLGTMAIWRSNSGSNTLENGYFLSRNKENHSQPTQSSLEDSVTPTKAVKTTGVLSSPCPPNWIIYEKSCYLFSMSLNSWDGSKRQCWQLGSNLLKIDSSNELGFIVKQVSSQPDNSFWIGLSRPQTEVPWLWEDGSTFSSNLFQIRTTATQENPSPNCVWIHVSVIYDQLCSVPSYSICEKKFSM
Method: as §1
(§3) hDectin-1a and hDectin-1b: WGP Soluble (0-glucan from S. cerevisiae) at 10 ng/mL Antagonist: 5 ng/mL. Curdlan at 100 μg/mL. Antagonist: 100 μg/mL. Zymosan Depleted (hot alkali treated S. cerevisiae) at 5 μg/mL Antagonist: 3 μg/mL.
as §2
(§4) Fold Induction (Ratio of Average Induced Value to Average Non-Induced Value): […]

hDectin-1b = biological target: T3, hDectin-1b (Homo sapiens, UniProt Q9BXN2); assay: as above; conditions: agonist mode, Curdlan 100 μg/mL
T3 construct: expressed in transfected cells; host or cells: HEK293
T3 sequence (Q9BXN2 1-201 isoform Q9BXN2-2): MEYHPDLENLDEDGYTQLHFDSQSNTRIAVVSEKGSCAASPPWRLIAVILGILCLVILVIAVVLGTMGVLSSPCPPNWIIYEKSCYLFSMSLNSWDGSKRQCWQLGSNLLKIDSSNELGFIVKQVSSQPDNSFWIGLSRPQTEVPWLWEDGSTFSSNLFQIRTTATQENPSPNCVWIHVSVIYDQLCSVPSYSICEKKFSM
Method: as §1, §3, §2, §4

Row | Fold induction (ratio of average induced value to average non-induced value) (hTLR7) | Fold induction (ratio of average induced value to average non-induced value) (hDectin-1a) | Fold induction (ratio of average induced value to average non-induced value) (hDectin-1b) | Molecule
1 | 34 | – | – | CCCCNc1nc(N)c2[nH]c(=O)n(Cc3ccc(C(=O)NCC(=O)NCCCNCCCCNCCCN)cc3)c2n1 [CL307]
2 | – | 6 | 8 | Curdlan
